Measurements taken from article PMC4731795, “New α-glucosidase inhibitors from marine algae-derived Streptomyces sp. OUCMDZ-3434” (Scientific Reports, 2016).

Legend:
α-glucosidase [1] = assay: α-Glucosidase inhibitory effect assay with pNPG as substrate; assay type: biochemical; settings: 37 °C, 15 min, pH 6.8, read-out: IC50, α-glucosidase inhibition
Description: The inhibitory effects were assayed as described preciously. The sample was dissolved in sodium phosphate buffer (PBS, pH 6.8) at three concentrations. A volume of 10 μL of the sample solution, 20 μL of PBS and 20 μL of […] p-nitrophenyl-α-D-glucopyranoside (pNPG) solution (in phosphate buffer) were mixed in a 96-well microplate and incubated at 37 °C for 5 min. […] After incubating at 37 °C for 15 min, the absorbance at 405 nm was recorded by a Spectra max 190 micro plate reader (Molecular Devices Inc.).

α-glucosidase [2] = assay: Kinetics of α-glucosidase inhibition (Lineweaver-Burk plot analysis); assay type: biochemical; settings: for mode of α-glucosidase inhibition: Lineweaver-Burk plot; for Ki: pNPG 0.5–2.0 mM, 37 °C, 15 min
Description: Optimal amounts of compounds 1 and 2 used were determined based on the enzyme inhibitory activity assay.

[3] = Cytotoxic assay by MTT method; assay type: cell-based, murine; settings: murine, IEC-6 small intestinal cells, MTT, 72 h exposure; read-out: CC50, cytotoxicity on IEC-6 cell line
Description: (§1) The cytotoxicity on murine small intestinal IEC-6 cells were assayed by MTT (3-[4,5-dimethyl thiazol-2-yl]-2,5-diphenyl tetrazolium bromide) method. The IEC-6 cells were cultured in Dulbecco’s modified Eagle’s medium (DMEM) supplemented with 5% fetal bovine serum (FBS) under a humidified atmosphere of 5% CO2 and 95% air at 37 °C. Cell suspension, 100 μL, at a density of 2 × 10^4 cell mL^−1 was plated in 96-well microtiter plates and exposed to different concentrations of compounds in triplicate for 72 h. The initial concentrations of compounds were 2 mg/mL in DMSO, and then were diluted into 625, 125, 25, 5, and 1 μg/mL with RPMI-1640 medium, respectively. The experiments were divided into blank control, testing compounds and the positive control groups, and each group was set up three parallels. Then, 10 μL of PBS containing MTT (final concentration: 0.5 mg/mL) was added to each well. After 4 h incubation at 37 °C, the supernatant was removed and 200 μL of DMSO was added to each well to solubilize the formazan crystals. After vigorous shaking, absorbance values were measured in a microplate reader (Bio-Rad, USA) at 570 nm. The cytotoxicity was represented at these concentrations as [(ODblank − ODdrug)/ODblank × 100%]. The CC50 value, defined as the compound concentration necessary to induce cell cytotoxicity by 50%, was calculated by SPSS (Statistical Product and Service Solutions) v19.0 software.

[4] = test system: murine small intestinal IEC-6 cells; assay: Cytotoxic assay by MTT method; assay type: cell-based; settings: for selectivity index (SI): CC50 (IEC-6) relative to IC50 (α-glucosidase)
Description: as §1

Row | IC50 (α-glucosidase [1]) [µM] | mode of α-glucosidase inhibition (α-glucosidase [2]) | Ki (α-glucosidase [2]) [µM] | SMILES | CC50 at 72 h [3] [µM] | selectivity index (SI) [4] | CC50 ([4]; MTT, 72 h exposure, read-out: CC50, cytotoxicity on IEC-6 cell line) [µM]
1 | 19.7 | competitive | 16.8 | O=C1C[C@](O)(c2ccccc2)[C@@H](c2cc(O)c(Cc3c(O)cc(-c4c(-c5ccccc5)cc(O)c5c(O)cccc45)oc3=O)c(=O)o2)c2cccc(O)c21 [Compound 1, Wailupemycin H] | 280 | 14.2 | 
2 | 8.3 | competitive | 6 | O=C1C[C@](O)(c2ccccc2)[C@H](c2cc(O)c(Cc3c(O)cc(-c4c(-c5ccccc5)cc(O)c5c(O)cccc45)oc3=O)c(=O)o2)c2cccc(O)c21 [Compound 2, Wailupemycin I] | 1320 | 158.5 | 
3 | 989 |  |  | O=C1CC(O)(c2ccccc2)C(c2cc(O)cc(=O)o2)c2cccc(O)c21 (stereo not shown) [Compound 3, Wailupemycin D] | 2750 | 2.8 | 
4 | 392 |  |  | O=C1CC(O)(c2ccccc2)C(c2cc(O)cc(=O)o2)c2cccc(O)c21 (stereo not shown) [Compound 4, Wailupemycin E] |  | 7.6 | 2980
5 | 239 |  |  | O=c1cc(O)cc(-c2c(-c3ccccc3)cc(O)c3c(O)cccc23)o1 [Compound 5, wailupemycin G] | 2950 | 12.3 | 
